Measurements from patent publication US20190240502A1, “METHODS, COMPOSITIONS AND APPARATUSES FOR TREATING PSORIASIS BY PHOTOTHERAPY” (Luma Therapeutics, Inc., priority 2016, published 2019).

Type: physicochemical
Method: In forming the dressing shown in FIGS. 19A and 19B, the gel may be heat cured (e.g., at between 30-40° C. for between 1-4 hours, e.g., 2 hours at 35° C.). As will be described in more detail below, a very high salt (e.g., MgCl2), such as between 5% and 50% (weight of salt to weight of gel total) may be added to the hydrogel. For example 10% MgCl2 may be used which may help keep the coal tar globules or clusters from dissolving into the gel. […] In the context of the dressings described herein, a decrease in U.V. transmittance may require a longer treatment time (given that power output from the light cannot be increased) or may make treatment with the dressing impossible or impractical. […] Typically the greater the percentage of MgCl2 the better the effect. However, 5% or more may be sufficient; if longer shelf life for the dressings (e.g., beyond one week, two weeks, three weeks, on month, two months, three months, six months, 1 year, etc.) is desired higher MgCl2 percentages (e.g., 7.5%, 10%, or more) may be used.

## [Cl-].[Cl-].[Mg+2] [MgCl2]
  effect of additive on coal tar solubility in hydrogel: lower coal tar solubility

## OC[C@@H](O)[C@@H](O)[C@H](O)[C@@H](O)CO [Sorbitol, sorbitol]
  effect of additive on coal tar solubility in hydrogel: increased solubility of coal tar in water

## coal tar
  solubility of coal tar: low solubility
